Measurements reported in patent US8563548B2, “Methylene furanone derivatives and use of said derivatives as a photoprotecting or antioxidant or depigmentation agent in cosmetic or dermatological compositions” (Pierre Fabre Dermo-Cosmetique, priority 2008, dated 2013).
Entries after “also recorded” stand apart in the source; their conditions may differ.

Columns and labels:
[1] = Antioxidant capacity by trapping the superoxide anion (photochemiluminescence with luminol); assay type: biochemical; conditions: sample needed for activity equivalent to 1 μg Trolox; for ACL μg of sample for 1 μg of Trolox: methylene furanone samples; for μg of sample for 1 μg of Trolox: reference products
Procedure: The antioxidant capacity of 10 molecules was measured by trapping the superoxide anion: 5d, 9a, 5b, 5a, 5e, 4d, 5f, 5g, 5h, 5j.
The method consists in generating free radicals by a photochemical signal. Oxidation intensity is 1000 times higher than that obtained in normal conditions.
Thus, the superoxide radical (O2—) is generated by a photochemical reaction: L+hv(UV)+O2→L*O2→L^++O2—
Detection is done by chemiluminescence. It enables the evaluation of water-soluble and fat-soluble antioxidant molecules or extracts.
Part of the superoxide anions are quenched by antioxidants. The remaining free radicals are quantified by chemiluminescence. L^++O2^−→N2+AP*^2−→AP^2−+hv (luminescence)
The results are expressed respectively in equivalent quantity of vitamin C or Trolox (6-hydroxy-2,5,7,8-tetramethylchroman-2-carboxylic acid). Sensitivity is on the order of a nanomole.
The analysis of the results depends on two criteria: shape of the curve and numerical value given by the software.

[2] = Photostability under Suntest irradiation (10 MED); assay type: physicochemical; conditions: irradiated with 10 MED, UV spectra before and after irradiation; for Photostability in solution: in solution in ethanol; for Photostability powder: powder form
From the text: For this study it was decided to irradiate samples, in powder form or in solution in ethanol, with 10 MED (minimal erythema dose: minimum amount of solar radiation causing the appearance of sunburn). The evaluation of degradation is estimated by the shape of the UV absorption spectra before and after irradiation.
Evaluation of Stability of Methylene Furanone Derivatives Irradiated in Suntest.

[3] = UV absorption characteristics (photoprotecting capacity); assay type: physicochemical; conditions: for region of UV absorption / maximum absorption: UVA, UVB, long UVA (340-400 nm); for UVA/UVB ratio (R) / critical wavelength (λc): UV absorption spectrum
From the text: The methylene furanone derivatives of general formula (I) of the present invention were thus evaluated in order to determine their photoprotecting capacity by determination of their UV absorption characteristics: molar extinction coefficient ε, critical wavelength (λc) and UVA/UVB ratio.
By gathering all this information and by comparing the shape of the UV absorption spectra, these molecules can be classified in three categories: […]

Tyrosinase = Tyrosinase monophenol monooxygenase (MPMO) inhibition test; assay type: biochemical; parameters: concentration or dose not given beside the values; conditions: for a 50 quantity; substrate L-tyrosine, compared to maximum activity without inhibitor
Procedure: Tyrosinase is a limiting enzyme in melanogenesis. It belongs to the family of oxidoreductases. […] It is synthesised in melanocytes. It is activated during its migration towards keratinocytes via melanosomes. It transforms tyrosine into DOPA and then dopaquinone, which eventually leads to polymerization and pigment production.
The monophenol monooxygenase function is measured in this test. Tyrosinase activity (MPMO in the strict sense) is measured.
The substrate: L-tyrosine is transformed into L-DOPA. The enzymatic reaction is stopped at this stage. The DOPA produced is determined by an external calibration (0.005 mM to 0.1 mM). The final result is a percentage of inhibition compared to maximum activity without inhibitor or extract.

COc1ccc(C(=C2C=CC(=O)O2)c2ccc(OC)c(OC)c2)cc1OC [5d, 5-(bis(3,4-Dimethoxyphenyl)methylene)furan-2-(5H)-one]
ACL μg of sample for 1 μg of Trolox [1]: 12.7 µg | Photostability in solution [2]: stable | Photostability powder [2]: completely unstable; also recorded: not stable

O=C1C=C(c2ccccc2F)/C(=C/c2ccccc2F)O1 [4f, (Z)-4-(2-Fluorophenyl)-(Z)-5-(2-fluorophenylmethylene)furan-2(5H)-one]
region of UV absorption / maximum absorption [3]: absorb in long UVA wavelengths

O=C1C=CC(=C(c2ccsc2)c2ccsc2)O1 [5b, 5-(Dithiophene-3-ylmethylene)furan-2-(5H)-one]
ACL μg of sample for 1 μg of Trolox [1]: 28.0 µg | Photostability in solution [2]: stable | Photostability powder [2]: stable

O=C1C=CC(=C(c2ccc3ccccc3c2)c2ccc3ccccc3c2)O1 [5c, 5-(Dinaphthalene-2-ylmethylene)furan-2-(5H)-one]
region of UV absorption / maximum absorption [3]: absorb in long UVA wavelengths

O=C1C=CC(=C(c2cc(O)c(O)c(O)c2)c2cc(O)c(O)c(O)c2)O1 [5i, 5-(bis(3,4,5-Trihydroxyphenyl)methylene)furan-2-(5H)-one]
ACL μg of sample for 1 μg of Trolox [1]: 1.5 µg

COc1ccc(O)c(C(C)(C)C)c1 [Butylhydroxyanisole, reference compound]
μg of sample for 1 μg of Trolox [1]: 2.650 µg

O=C1C=CC(=C(c2ccc(O)c(O)c2)c2ccc(O)c(O)c2)O1 [5g, 5-(bis(3,4-dihydroxyphenyl)methylene)furan-2-(5H)-one]
inhibition of MPMO enzyme activity (Tyrosinase): 65.93% | ACL μg of sample for 1 μg of Trolox [1]: 0.03 µg

CC(C)(C)OC(=O)Nc1ccc(C(=C2C=CC(=O)O2)c2ccc(NC(=O)OC(C)(C)C)cc2)cc1 [5e]
ACL μg of sample for 1 μg of Trolox [1]: 46.3 µg | Photostability in solution [2]: stable | Photostability powder [2]: stable

O=C(O)CCCC[C@@H]1CCSS1 (racemic) [Lipoic acid, reference compound]
μg of sample for 1 μg of Trolox [1]: NEGATIVE

N[C@@H](CS)C(=O)O [Cysteine, reference compound]
μg of sample for 1 μg of Trolox [1]: 698 µg

COc1ccc(/C=C2\OC(=O)C=C2c2ccc(OC)c(OC)c2)cc1OC [4d]
ACL μg of sample for 1 μg of Trolox [1]: 50.2 µg | Photostability in solution [2]: moderately stable | Photostability powder [2]: stable

O=C1C=C(c2ccccc2)/C(=C/c2ccsc2)O1 [8b, 4-Phenyl-(Z)-5-(thiophene-3-ylmethylene)furan-2-(5H)-one]
region of UV absorption / maximum absorption [3]: absorb in long UVA wavelengths

O=C1C=C(Br)/C(=C/c2ccccc2)O1 [6a, (Z)-4-Bromo-5-(phenylmethylene)furan-2-(5H)-one]
region of UV absorption / maximum absorption [3]: absorb in long UVA wavelengths

O=C1C=CC(=C(c2ccccc2F)c2ccccc2F)O1 [5f, 5-bis((2-fluorophenyl)methylene)furan-2-(5H)-one]
ACL μg of sample for 1 μg of Trolox [1]: 88.3 µg | Photostability in solution [2]: stable | Photostability powder [2]: stable

COc1cc(C(=C2C=CC(=O)O2)c2cc(OC)c(OC)c(OC)c2)cc(OC)c1OC [5h, 5-(bis(3,4,5-trimethoxyphenyl)methylene)furan-2-(5H)-one]
ACL μg of sample for 1 μg of Trolox [1]: 30 µg

COC1=C(OC)C(=O)C(CCCCCCCCCCO)=C(C)C1=O [Idebenone, reference compound]
μg of sample for 1 μg of Trolox [1]: 10.10 µg

O=C1C=C(c2ccc3ccccc3c2)/C(=C/c2ccc3ccccc3c2)O1 [4c, (Z)-4-(2-naphthalene)-5-(2-naphthalenephenylmethylene)furan-2(5H)-one]
molar extinction coefficient ε ([3]; UV absorption): 22,000 l.mol^−1.cm^−1 | UVA/UVB ratio (R) [3]: 3.2 | region of UV absorption / maximum absorption [3]: maximum is in UVB

O=C1C=C(c2ccccc2)/C(=C/c2ccccc2)O1 [4a, (Z)-4-Phenyl-5-(phenylmethylene)furan-2(5H)-one]
region of UV absorption / maximum absorption [3]: absorb in long UVA wavelengths

O=C1C=C/C(=C(\c2ccccc2)c2ccsc2)O1 [9a, (Z)-5-(phenylthiophene-3-ylmethylene)furan-2-(5H)-one]
ACL μg of sample for 1 μg of Trolox [1]: 21.6 µg | Photostability in solution [2]: stable | Photostability powder [2]: stable

O=C1C=C(Br)/C(=C/c2ccsc2)O1 [6b, (Z)-4-Bromo-5-(thiophene-3-ylmethylene)furan-2-(5H)-one]
critical wavelength (λc) [3]: 355 nm

O=C1C=C(c2ccsc2)/C(=C/c2ccccc2)O1 [8a, (Z)-5-(Phenylmethylene)-4-(thiophene-3-yl)furan-2-(5H)-one]
region of UV absorption / maximum absorption [3]: absorb in long UVA wavelengths

O=C1C=C(c2ccsc2)/C(=C/c2ccsc2)O1 [4b, (Z)-4-(3-Thiophene)-5-(3-thiophenylmethylene)furan-2(5H)one]
UVA/UVB ratio (R) [3]: 1.9 | region of UV absorption / maximum absorption [3]: maximum is in UVB

O=C1C=CC(=C(c2ccccc2)c2ccccc2)O1 [5a, 5-(Diphenylmethylene)furan-2(5H)-one]
ACL μg of sample for 1 μg of Trolox [1]: 43.0 µg | Photostability in solution [2]: stable | Photostability powder [2]: stable | critical wavelength (λc) [3]: 367 nm

O=C1O[C@H]([C@@H](O)CO)C(O)=C1O [Vitamin C, ascorbic acid, reference compound]
μg of sample for 1 μg of Trolox [1]: 0.451 µg

Cc1c(C)c2c(c(C)c1O)CCC(C)(C(=O)O)O2 (stereo not drawn) [Trolox, 6-hydroxy-2,5,7,8-tetramethylchroman-2-carboxylic acid, reference compound]
μg of sample for 1 μg of Trolox [1]: 1.067 µg

CC(=O)Oc1c(C)c(C)c2c(c1C)CCC(C)(CCC[C@H](C)CCC[C@H](C)CCCC(C)C)O2 (stereo partly drawn) [α-tocopherol-acetate, reference compound]
μg of sample for 1 μg of Trolox [1]: 140 µg
